Reference: publication PMC11229689, “In Vitro Selection of Macrocyclic L-α/D-α/β/γ-Hybrid Peptides Targeting IFN-γ/IFNGR1 Protein–Protein Interaction” (Journal of the American Chemical Society, 2024)
Like-named read-outs stand apart in the source and are kept apart here. *1 amine or outer side, *2 acyl side, *3 side chain or, on linkers, in order; H or OH if unused. Where a SMILES comes first, the peptide text is derived from it. Bridges are numbered along the chain shown (N, C = ends). [ ]: non-standard residue; d: D form. Acbc(trans-1,3) = O=C([C@H]1C[C@H](N[*:1])C1)[*:2]; Acbc(cis-1,3) = O=C([C@H]1C[C@@H](N[*:1])C1)[*:2]; X1 = O=C([C@@H]1CCC[C@@H]1N[*:1])[*:2]

Key:
Fc-tagged human IFNGR1 = target: T1, Fc-tagged human IFNGR1 (Homo sapiens, UniProt P15260); experiment: Binding kinetics and affinity to IFNGR1 by surface plasmon resonance (SPR); conditions: for kon: read-out: ka
T1 construct: purchased ACROBiosystems
T1 sequence (P15260 18-489): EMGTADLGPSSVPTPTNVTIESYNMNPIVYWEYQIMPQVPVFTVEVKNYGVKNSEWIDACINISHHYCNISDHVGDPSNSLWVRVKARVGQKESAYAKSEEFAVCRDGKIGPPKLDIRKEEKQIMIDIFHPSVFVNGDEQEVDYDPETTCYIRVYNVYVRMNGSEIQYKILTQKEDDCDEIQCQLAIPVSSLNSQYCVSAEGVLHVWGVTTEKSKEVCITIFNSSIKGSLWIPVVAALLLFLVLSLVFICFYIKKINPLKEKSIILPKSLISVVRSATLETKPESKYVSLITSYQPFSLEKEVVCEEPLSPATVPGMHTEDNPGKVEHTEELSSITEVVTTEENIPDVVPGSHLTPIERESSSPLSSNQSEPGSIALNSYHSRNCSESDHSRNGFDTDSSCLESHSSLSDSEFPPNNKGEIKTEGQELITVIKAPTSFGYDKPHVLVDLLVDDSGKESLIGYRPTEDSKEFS
Description: (§1) Binding affinities of IA1 and IA2 against IFNGR1 were evaluated by surface plasmon resonance (SPR) (Table 1 and SI Figure S6A). […] To investigate the contribution of the N-terminal [yVPβ^1RR] motif and β^1 residue in IA1, three scrambled peptides IA1s1–3 and a variant IA1β^14A were synthesized and evaluated. […] We next evaluated inhibitory activities of IA1 and IA2 against the ligand–receptor PPI between IFN-γ and IFNGR1 using AlphaLISA (Table 1 and SI Figure S7).[37] […] We also determined the serum half-lives of IA1 and IA2, considering peptidase resistance as an important factor for therapeutic peptides.[24] A sample peptide and a peptidase-resistant internal standard peptide were coincubated in human serum at 37 °C, and the relative amount of the remaining sample peptide was estimated by LC/MS. […]
Evaluation of binding affinity of peptides by surface plasmon resonance The binding affinities of selected peptides and IFNGR1 were analyzed by surface plasmon resonance (SPR) using a Biacore T200 instrument (Cytiva) at 25 °C with the following running buffer: 10 mM Tris-HCl (pH 8.0), 150 mM NaCl, 0.05% (v/v) Tween 20 , and 0.1% (v/v) DMSO. Fc-tagged IFNGR1 was immobilized on a series S sensor chip protein G (Cytiva) to a surface density of 1,200–1,600 response units following the immobilization protocols provided by Cytiva. The kinetic constants were determined by a single-cycle kinetics method by the injection of five different concentrations (twofold dilution series) of each peptide at a flow rate of 30 μL/min. The resulting sensorgrams were fitted to the standard 1:1 interaction model and analyzed using Biacore evaluation software. […]

[1] = Serum stability assay (LC/MS); type: in vitro ADME, human; conditions: human serum, 37 °C, LC/MS, relative to internal standard peptide, n = 3, read-out: half-life in human serum (t1/2) (converted)
Description: as §1
10–200 μM synthetic peptide and 5 μM serum-resistant internal standard peptide consisting only of D-amino acids (NH2-PEG5-wstndwstnd-PEG5-CONH2)3 were mixed and incubated in human serum (Cosmo Bio, 12181201) at 37 °C for up to 120 h. At each time point, 4 μL of the mixture was removed and quenched by adding 12 μl methanol. Following centrifugation (15,000 g, 4 °C, 5 min), 10 μL of the supernatant was mixed with 40 μl of 1% (v/v) TFA. Following centrifugation (15,000 g, 4 °C, 5 min), the supernatant was collected for LC/MS analysis, which used a reverse-phase column (ACQUITY UPLC BEH C18, 1.7 μm, 2.1 × 150 mm; Waters) and a Xevo G2-XS QTof system (Waters) with a linear gradient from 1% B to 61% B. Buffer A was water with 0.1% (v/v) formic acid; buffer B was acetonitrile with 0.1% (v/v) formic acid. The percentages of remaining peptides were determined by the peak area integration of the chromatograms. For tandem mass spectrometry, MS/MS spectra were acquired with a 0.2 s scan time, with 10−30 eV collision energy. The obtained LC/MS data was analyzed using MassLynx 4.1 (Waters). […]

[2] = SPR, 25 °C, 1:1 binding model, read-out: KD
[3] = SPR, 25 °C, single-cycle kinetics, 1:1 binding model

## CC(C)[C@@H]1NC(=O)[C@@H](Cc2ccc(O)cc2)NC(=O)CSC[C@H](C(N)=O)NC(=O)[C@H](CC(N)=O)NC(=O)[C@H](Cc2c[nH]cn2)NC(=O)[C@H](CCCNC(=N)N)NC(=O)[C@H]2C[C@@H](C2)NC(=O)[C@H]([C@@H](C)O)NC(=O)[C@H](Cc2c[nH]cn2)NC(=O)[C@@H]2CCCN2C(=O)[C@H](CO)NC(=O)[C@H](CCCNC(=N)N)NC(=O)[C@H](CCCNC(=N)N)NC(=O)[C@H](C)NC(=O)[C@@H]2CCCN2C1=O [IB5β^14A, ^AcyVPA RRSPHTγ^2RHNc-NH2] ({CH2CO}-[dY]VPARRSPHT[Acbc(trans-1,3)]RHN[dC]-NH2; thioether N-15)
Fc-tagged human IFNGR1; [2]
  Kd: > 10000 nM
[1]; human
  half-life: 24.6 ± 1.8 min

## CC(C)[C@@H]1NC(=O)[C@@H](Cc2ccc(O)cc2)NC(=O)CSC[C@H](C(N)=O)NC(=O)[C@H]([C@@H](C)O)NC(=O)[C@H](CC(N)=O)NC(=O)[C@H](Cc2c[nH]cn2)NC(=O)[C@H](CC(N)=O)NC(=O)[C@H](CCCNC(=N)N)NC(=O)[C@H](Cc2c[nH]cn2)NC(=O)[C@H]2C[C@H](C2)NC(=O)[C@H](CO)NC(=O)[C@H](CCCNC(=N)N)NC(=O)[C@H](CCCNC(=N)N)NC(=O)[C@@H]2CCC[C@@H]2NC(=O)[C@@H]2CCCN2C1=O [IA1s2, ^AcyVPβ^1RRSγ^1HRNHNTc-NH2] ({CH2CO}-[dY]VP[X1]RRS[Acbc(cis-1,3)]HRNHNT[dC]-NH2; thioether N-15)
Fc-tagged human IFNGR1; [2]
  Kd: 2200 ± 200 nM
Fc-tagged human IFNGR1; [3]
  kon: 2200 ± 200 M⁻¹ s⁻¹

## CC(C)[C@@H]1NC(=O)[C@@H](Cc2ccc(O)cc2)NC(=O)CSC[C@H](C(N)=O)NC(=O)[C@H](CC(N)=O)NC(=O)[C@H]2C[C@@H](C2)NC(=O)[C@H](CCCNC(=N)N)NC(=O)[C@@H]2CCCN2C(=O)[C@H]([C@@H](C)O)NC(=O)[C@H](CCCNC(=N)N)NC(=O)[C@H](CCCNC(=N)N)NC(=O)[C@H](CO)NC(=O)[C@H](CCCNC(=N)N)NC(=O)[C@H](CCCNC(=N)N)NC(=O)[C@H](C)NC(=O)[C@@H]2CCCN2C1=O [IB4β^14A, ^AcyVPA RRSRRTPRγ^2Nc-NH2] ({CH2CO}-[dY]VPARRSRRTPR[Acbc(trans-1,3)]N[dC]-NH2; thioether N-15)
Fc-tagged human IFNGR1
  Kd: 420 ± 120 nM
  kon: 8900 ± 2100 M⁻¹ s⁻¹
[1]
  half-life: 30 ± 1.8 min

## CC(C)[C@@H]1NC(=O)[C@H](Cc2ccc(O)cc2)NC(=O)CSC[C@@H](C(N)=O)NC(=O)[C@H](CC(N)=O)NC(=O)[C@H](Cc2c[nH]cn2)NC(=O)[C@H](CCCNC(=N)N)NC(=O)[C@H]2C[C@@H](C2)NC(=O)[C@H]([C@@H](C)O)NC(=O)[C@H](Cc2c[nH]cn2)NC(=O)[C@@H]2CCCN2C(=O)[C@H](CO)NC(=O)[C@H](CCCNC(=N)N)NC(=O)[C@H](CCCNC(=N)N)NC(=O)[C@@H]2CCC[C@@H]2NC(=O)[C@@H]2CCCN2C1=O [IB5YC, ^AcYVPβ^1RRSPHTγ^2RHNC-NH2] ({CH2CO}-YVP[X1]RRSPHT[Acbc(trans-1,3)]RHNC-NH2; thioether N-15)
Fc-tagged human IFNGR1; [2]
  Kd: 1900 ± 100 nM
Fc-tagged human IFNGR1; [3]
  kon: 16000 ± 1000 M⁻¹ s⁻¹
[1]; human
  half-life: 840 ± 120 min

## CC(C)[C@@H]1NC(=O)[C@@H]2CCC[C@@H]2NC(=O)[C@H](CCCNC(=N)N)NC(=O)[C@H](Cc2c[nH]cn2)NC(=O)[C@@H]2CCCN2C(=O)[C@H](CCCNC(=N)N)NC(=O)[C@H]2C[C@H](C2)NC(=O)[C@H]([C@@H](C)O)NC(=O)[C@H](CCCNC(=N)N)NC(=O)[C@H](CC(N)=O)NC(=O)[C@H](CO)NC(=O)[C@@H](Cc2ccc(O)cc2)NC(=O)CSC[C@H](C(N)=O)NC(=O)[C@H](Cc2c[nH]cn2)NC(=O)[C@H](CC(N)=O)NC1=O [IA1s1, ^AcySNRTγ^1RPHRβ^1VNHc-NH2] ({CH2CO}-[dY]SNRT[Acbc(cis-1,3)]RPHR[X1]VNH[dC]-NH2; thioether N-15)
Fc-tagged human IFNGR1; [2]
  Kd: > 10000 nM

## CC(C)[C@@H]1NC(=O)[C@@H](Cc2ccc(O)cc2)NC(=O)CSC[C@H](C(N)=O)NC(=O)[C@H](CC(N)=O)NC(=O)[C@H](CO)NC(=O)[C@H](CCCNC(=N)N)NC(=O)[C@H]2C[C@H](C2)NC(=O)[C@H](Cc2c[nH]cn2)NC(=O)[C@H](CC(N)=O)NC(=O)[C@H]([C@@H](C)O)NC(=O)[C@H](Cc2c[nH]cn2)NC(=O)[C@H](CCCNC(=N)N)NC(=O)[C@H](CCCNC(=N)N)NC(=O)[C@H](C)NC(=O)[C@@H]2CCCN2C1=O [IA1β^14A, ^AcyVPA RRHTNHγ^1RSNc-NH2] ({CH2CO}-[dY]VPARRHTNH[Acbc(cis-1,3)]RSN[dC]-NH2; thioether N-15)
Fc-tagged human IFNGR1; [2]
  Kd: > 10000 nM
[1]; human
  half-life: 42.6 ± 6 min

## CC(C)[C@@H]1NC(=O)[C@H](Cc2ccc(O)cc2)NC(=O)CSC[C@@H](C(N)=O)NC(=O)[C@H](CC(N)=O)NC(=O)[C@H]2C[C@@H](C2)NC(=O)[C@H](CCCNC(=N)N)NC(=O)[C@@H]2CCCN2C(=O)[C@H]([C@@H](C)O)NC(=O)[C@H](CCCNC(=N)N)NC(=O)[C@H](CCCNC(=N)N)NC(=O)[C@H](CO)NC(=O)[C@H](CCCNC(=N)N)NC(=O)[C@H](CCCNC(=N)N)NC(=O)[C@@H]2CCC[C@@H]2NC(=O)[C@@H]2CCCN2C1=O [IB4YC, ^AcYVPβ^1RRSRRTPRγ^2NC-NH2] ({CH2CO}-YVP[X1]RRSRRTPR[Acbc(trans-1,3)]NC-NH2; thioether N-15)
Fc-tagged human IFNGR1; [2]
  Kd: 45 ± 5 nM
Fc-tagged human IFNGR1; [3]
  kon: 58000 ± 11000 M⁻¹ s⁻¹
[1]; human
  half-life: 55.2 ± 6.6 min

## CC(C)[C@@H]1NC(=O)[C@H](CCCNC(=N)N)NC(=O)[C@@H]2CCC[C@@H]2NC(=O)[C@@H](Cc2ccc(O)cc2)NC(=O)CSC[C@H](C(N)=O)NC(=O)[C@H](CC(N)=O)NC(=O)[C@H](CO)NC(=O)[C@H](CCCNC(=N)N)NC(=O)[C@H]2C[C@H](C2)NC(=O)[C@H](Cc2c[nH]cn2)NC(=O)[C@H](CC(N)=O)NC(=O)[C@H]([C@@H](C)O)NC(=O)[C@H](Cc2c[nH]cn2)NC(=O)[C@H](CCCNC(=N)N)NC(=O)[C@@H]2CCCN2C1=O [IA1s3, ^Acyβ^1RVPRHTNHγ^1RSNc-NH2] ({CH2CO}-[dY][X1]RVPRHTNH[Acbc(cis-1,3)]RSN[dC]-NH2; thioether N-15)
Fc-tagged human IFNGR1; [2]
  Kd: > 10000 nM

## CC(C)[C@@H]1NC(=O)[C@H](Cc2ccc(O)cc2)NC(=O)CSC[C@@H](C(N)=O)NC(=O)[C@H](CC(N)=O)NC(=O)[C@H](CO)NC(=O)[C@H](CCCNC(=N)N)NC(=O)[C@H]2C[C@H](C2)NC(=O)[C@H](Cc2c[nH]cn2)NC(=O)[C@H](CC(N)=O)NC(=O)[C@H]([C@@H](C)O)NC(=O)[C@H](Cc2c[nH]cn2)NC(=O)[C@H](CCCNC(=N)N)NC(=O)[C@H](CCCNC(=N)N)NC(=O)[C@@H]2CCC[C@@H]2NC(=O)[C@@H]2CCCN2C1=O [IA1YC, ^AcYVPβ^1RRHTNHγ^1RSNC-NH2] ({CH2CO}-YVP[X1]RRHTNH[Acbc(cis-1,3)]RSNC-NH2; thioether N-15)
Fc-tagged human IFNGR1; [2]
  Kd: 1400 ± 200 nM
Fc-tagged human IFNGR1; [3]
  kon: 3600 ± 100 M⁻¹ s⁻¹
[1]; human
  half-life: 156 ± 6 min

## CC(C)[C@@H]1NC(=O)[C@H](Cc2ccc(O)cc2)NC(=O)CSC[C@@H](C(N)=O)NC(=O)[C@H](CCCNC(=N)N)NC(=O)[C@H](CO)NC(=O)[C@H](CCCNC(=N)N)NC(=O)[C@H](Cc2c[nH]cn2)NC(=O)CNC(=O)[C@H]2C[C@H](C2)NC(=O)[C@H](Cc2c[nH]cn2)NC(=O)[C@H](CC(N)=O)NC(=O)[C@H](CCCNC(=N)N)NC(=O)[C@H](CCCNC(=N)N)NC(=O)[C@@H]2CCC[C@@H]2NC(=O)[C@H](C)NC1=O [IB1YC, ^AcYVAβ^1RRNHγ^1GHRSRC-NH2] ({CH2CO}-YVA[X1]RRNH[Acbc(cis-1,3)]GHRSRC-NH2; thioether N-15)
Fc-tagged human IFNGR1; [2]
  Kd: 1700 ± 200 nM
Fc-tagged human IFNGR1; [3]
  kon: 2200 ± 300 M⁻¹ s⁻¹
